Consider four compounds from ChEMBL document CHEMBL4715881, “ATB-targeted delivery of triptolide prodrugs for safer and more effective pancreatic cancer therapy” (Bioorg Med Chem Lett, 2021).

Calls of active or inactive are those of the source. Some results are limits rather than exact numbers.

Series [1] in a line: Stability in rat plasma assessed as half life. It counts as ADME, cell-free.
Series [2] is described as follows: Drug uptake in human MIA PaCa-2 cells in presence of glycine. It counts as ADME, cell-based.
The nature of series [3]: Drug uptake in human MIA PaCa-2 cells assessed as Vmax measured at 10 mins. It counts as ADME, cell-based. The following applies: mia paca-2, 10 min.
Series [4] is described as follows: Drug uptake in human MIA PaCa-2 cells in presence of lysine. It is filed as ADME, cell-based.
Series [5] can be described thus: Stability in rat liver homogenate assessed as half life. It is filed as ADME, tissue-based.
Series [6] in a line: Drug uptake in human ASPC1 cells in presence of lysine. It is filed as ADME, cell-based.
Series [7] can be described thus: Drug uptake in human HPDE cells. It counts as ADME, cell-based.
The subject of series [8] is ASPC1. The experiment in a line: Cytotoxicity against human ASPC1 cells assessed as reduction in cell viability pretreated with glycine for 30 mins by MTT assay. It is filed as functional, cell-based.
A short description of series [9]: Drug uptake in human ASPC1 cells in presence of glutamate. It is filed as ADME, cell-based.
Series [10] deals with ASPC1. The experiment in a line: Cytotoxicity against human ASPC1 cells assessed as reduction in cell viability by MTT assay. It is filed as functional, cell-based. (Formazan colour is commonly taken as a measure of viable cells.)
In series [11] the test system is MIA PaCa-2. The experiment in a line: Cytotoxicity against human MIA PaCa-2 cells assessed as reduction in cell viability pretreated with glycine for 30 mins by MTT assay. It counts as functional, cell-based.
Series [12] can be described thus: Drug uptake in human ASPC1 cells. It is filed as ADME, cell-based.
Series [13] can be described thus: Drug uptake in human MIA PaCa-2 cells in presence of alpha-Methyl-D,L-tryptophan. It counts as ADME, cell-based.
Series [14] can be described thus: Stability in human ASPC1 cells homogenate assessed as half life. It counts as ADME, cell-based. Particulars: ASPC1 cell homogenate.
Series [15] in a line: Drug uptake in human MIA PaCa-2 cells. It counts as ADME, cell-based.
The nature of series [16]: Drug uptake in human ASPC1 cells assessed as Vmax measured at 10 mins. It counts as ADME, cell-based. Particulars: aspc1, 10 min.
Series [17] can be described thus: Drug uptake in human ASPC1 cells in presence of glycine. It counts as ADME, cell-based.
Series [18] can be described thus: Drug uptake in human ASPC1 cells in presence of alpha-Methyl-D,L-tryptophan. It is filed as ADME, cell-based.
Series [19] has as its system MIA PaCa-2. The experiment in a line: Cytotoxicity against human MIA PaCa-2 cells assessed as reduction in cell viability by MTT assay. It is filed as functional, cell-based.
Series [20] can be described thus: Drug uptake in human MIA PaCa-2 cells in presence of glutamate. It counts as ADME, cell-based.
Series [21] in a line: Drug uptake in human MIA PaCa-2 cells assessed as Km. It is filed as ADME, cell-based.
A short description of series [22]: Drug uptake in human ASPC1 cells assessed as Km. It counts as ADME, cell-based.
Series [23] in a line: Cytotoxicity against human HPDE cells assessed as reduction in cell viability by MTT assay. It counts as cell-based.

As for `CC(C)[C@]12O[C@H]1[C@@H]1O[C@]13[C@]1(O[C@H]1C[C@H]1C4=C(CC[C@@]13C)C(=O)OC4)[C@@H]2OC(=O)[C@@H](N)CCCCN`, the half-life in series [1] is over 10 h; in series [5] it was 6 h; in [14] it was 8 h. Moreover, the Drug uptake entry is “Not Active” in series [2]; “Not Active” in [4]; “Not Active” in [6]; “Not Active” in [7]; “Active” in series [9]; “Active” in [12]. Moreover, the Drug uptake result is recorded as “Not Active” in series [13]; “Active” in [15]; “Not Active” in series [17]; “Not Active” in series [18]; “Active” in series [20]. Besides, the Vmax in series [3] is given as 3.516 nmol/mg; in series [16], 3.41 nmol/mg. The outcome in [8] and in [11] was inactive. Moreover, the outcome in [10] and in series [19] was Active. For the same compound, the results for the Michaelis constant (Km) in series [21] and in series [22] were 124 µM and 121 µM, respectively. For the same compound, the Activity entry in series [23] was “Non-Toxic”.
Consider `CC(C)[C@H](N)C(=O)O[C@@H]1[C@@]2(C(C)C)O[C@H]2[C@@H]2O[C@]23[C@]12O[C@H]2C[C@H]1C2=C(CC[C@@]13C)C(=O)OC2`, for which the half-life in [1] is over 10 h; in series [5] it was 6 h; in [14] it was 8 h. In addition, the Drug uptake entry in series [2] is reported as “Not Active”; in [4], “Not Active”; in series [6] it was “Not Active”; in series [7] it was “Not Active”; in [9] it was “Active”; in series [12], “Active”. In addition, the Drug uptake result in series [13] is recorded as “Not Active”; in series [15], “Active”; in [17] it was “Not Active”; in series [18] it was “Not Active”; in series [20] it was “Active”. Further, the results for the Vmax in series [3] and in series [16] were 4.132 nmol/mg and 4.391 nmol/mg, respectively. The result in series [8] and in series [11] was inactive. Moreover, the result in [10] and in [19] was Active. The Km in [21] is 112 µM; in series [22] it was 130 µM. The Activity entry in [23] is recorded as “Non-Toxic”.
As to `CC(C)[C@]12O[C@H]1[C@@H]1O[C@]13[C@]1(O[C@H]1C[C@H]1C4=C(CC[C@@]13C)C(=O)OC4)[C@@H]2OC(=O)[C@@H](N)Cc1c[nH]c2ccccc12`, the half-life in [1] is over 10 h; in series [5] it was 6 h; in series [14], 8 h. For the same compound, the Drug uptake result is “Not Active” in [2]; “Not Active” in series [4]; “Not Active” in series [6]; “Not Active” in series [7]; “Active” in series [9]; “Active” in series [12]. Also, the Drug uptake result in series [13] is given as “Not Active”; in [15], “Active”; in series [17] it was “Not Active”; in series [18] it was “Not Active”; in series [20] it was “Active”. In addition, the figures for the Vmax in series [3] and in series [16] were 5.072 nmol/mg and 5.874 nmol/mg, respectively. In addition, the outcome in series [8] and in series [11] was inactive. In addition, the result in [10] and in [19] was Active. Also, the Michaelis-Menten constant (Km) in series [21] is 96 µM; in series [22] it was 105 µM. In [23], the Activity result was “Non-Toxic”.
Regarding `CC(C)[C@]12O[C@H]1[C@@H]1O[C@]13[C@]1(O[C@H]1C[C@H]1C4=C(CC[C@@]13C)C(=O)OC4)[C@@H]2O` [TRIPTOLIDE], the outcome in series [10] and in series [19] was Active. Also, the Activity result in series [23] is reported as “Toxic”.

A word on the half-life: it is the time needed for the level to fall by half in the phase considered. As a reminder, the Km is the concentration of substrate that gives half-maximal velocity.
